Measurements from ChEMBL document CHEMBL4049381 (Medchemcomm, 2016).

Legend:
[1] = target: T1, Solute carrier organic anion transporter family member 2B1 (Homo sapiens, UniProt O94956); assay: Substrate activity at human OATP2B1 low affinity site expressed in Xenopus laevis oocytes assessed as Vmax for transporter-mediated drug accumulation per 15 mins per oocyte by Eadie-Hofstee plot method; assay type: ADME, cell-based; details: 0.25 h
T1 sequence (O94956 whole entry): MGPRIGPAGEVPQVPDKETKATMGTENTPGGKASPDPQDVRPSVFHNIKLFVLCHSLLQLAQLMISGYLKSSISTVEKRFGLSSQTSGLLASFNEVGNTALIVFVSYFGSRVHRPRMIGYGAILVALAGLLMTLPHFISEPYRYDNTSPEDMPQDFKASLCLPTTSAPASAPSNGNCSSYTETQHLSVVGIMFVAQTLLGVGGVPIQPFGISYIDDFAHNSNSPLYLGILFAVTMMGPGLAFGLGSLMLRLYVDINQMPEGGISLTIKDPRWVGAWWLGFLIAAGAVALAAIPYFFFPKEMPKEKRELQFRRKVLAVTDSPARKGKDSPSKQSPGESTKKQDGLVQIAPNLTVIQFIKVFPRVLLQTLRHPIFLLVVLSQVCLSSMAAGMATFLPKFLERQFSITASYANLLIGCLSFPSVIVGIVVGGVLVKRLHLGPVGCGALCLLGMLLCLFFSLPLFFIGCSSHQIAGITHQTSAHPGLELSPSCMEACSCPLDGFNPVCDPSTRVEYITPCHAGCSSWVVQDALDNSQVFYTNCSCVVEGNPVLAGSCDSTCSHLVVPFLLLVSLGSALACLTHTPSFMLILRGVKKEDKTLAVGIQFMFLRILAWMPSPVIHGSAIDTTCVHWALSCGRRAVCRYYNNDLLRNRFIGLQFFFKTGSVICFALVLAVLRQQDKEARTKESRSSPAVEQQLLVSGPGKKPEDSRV

[2] = target: T2, Solute carrier organic anion transporter family member 2B1 (Homo sapiens, UniProt O94956, H618Q); assay: Drug uptake assessed as human OATP2B1 H618Q mutant expressed in Xenopus laevis oocyte mediated drug accumulation at 0.005 to 50 uM after 15 mins by LC-MS/MS analysis relative to wild type protein; assay type: ADME; details: 0.25 h
T2 sequence (O94956 whole entry T392I/H618Q): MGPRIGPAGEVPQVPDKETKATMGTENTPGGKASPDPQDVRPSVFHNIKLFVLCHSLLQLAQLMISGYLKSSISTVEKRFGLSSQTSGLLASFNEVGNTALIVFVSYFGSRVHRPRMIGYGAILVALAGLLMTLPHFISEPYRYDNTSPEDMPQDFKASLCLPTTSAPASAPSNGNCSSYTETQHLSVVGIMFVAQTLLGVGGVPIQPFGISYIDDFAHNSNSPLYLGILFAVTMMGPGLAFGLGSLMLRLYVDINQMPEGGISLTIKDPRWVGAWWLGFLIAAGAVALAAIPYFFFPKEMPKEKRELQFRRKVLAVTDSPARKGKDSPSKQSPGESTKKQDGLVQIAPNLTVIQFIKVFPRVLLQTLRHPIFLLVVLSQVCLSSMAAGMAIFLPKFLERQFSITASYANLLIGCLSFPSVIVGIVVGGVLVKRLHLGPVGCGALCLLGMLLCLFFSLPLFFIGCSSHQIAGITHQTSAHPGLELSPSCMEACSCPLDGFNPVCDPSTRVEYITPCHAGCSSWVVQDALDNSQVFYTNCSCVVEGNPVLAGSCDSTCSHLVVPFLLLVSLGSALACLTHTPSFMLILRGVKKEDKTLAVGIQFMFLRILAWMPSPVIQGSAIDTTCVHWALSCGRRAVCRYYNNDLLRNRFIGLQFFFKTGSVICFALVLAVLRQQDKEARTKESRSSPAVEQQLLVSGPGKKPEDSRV

[3] = target: Solute carrier organic anion transporter family member 2B1 (Homo sapiens, UniProt O94956, R607A); assay: Drug uptake assessed as human OATP2B1 R607A mutant expressed in Xenopus laevis oocyte mediated drug accumulation at 0.005 to 50 uM after 15 mins by LC-MS/MS analysis relative to wild type protein; assay type: ADME; details: 0.25 h
Chain of Solute carrier organic anion transporter family member 2B1 (Homo sapiens, UniProt O94956, R607A) (O94956 whole entry T392I/R607A): as the sequence (O94956 whole entry T392I/H618Q) above, with R607A, Q618H counted along it

[4] = target: T1, Solute carrier organic anion transporter family member 2B1; assay: Drug uptake assessed as OATP2B1 high affinity site (unknown origin)-mediated drug uptake in presence of 1 mM sulfasalazine relative to control; assay type: ADME
[5] = target: T1, Solute carrier organic anion transporter family member 2B1; assay: Substrate activity at human OATP2B1 high affinity site expressed in Xenopus laevis oocytes assessed as Vmax for transporter-mediated drug accumulation per 15 mins per oocyte by Eadie-Hofstee plot method; assay type: ADME, cell-based; details: 0.25 h
[6] = system: OATP2B1 H579Q/H618Q double mutant, high affinity site; assay: Substrate activity at human OATP2B1 H579Q/H618Q double mutant high affinity site expressed in Xenopus laevis oocytes assessed as Km for transporter-mediated drug accumulation after 15 mins by Eadie-Hofstee plot method; assay type: ADME, cell-based
[7] = target: T2, Solute carrier organic anion transporter family member 2B1; assay: Ratio of Vmax to Km for human OATP2B1 H618Q mutant high affinity site expressed in Xenopus laevis oocytes assessed as transporter-mediated drug uptake per 15 mins per oocyte after 15 mins by Eadie-Hofstee plot method; assay type: ADME, cell-based; details: 0.25 h
[8] = Ratio of Vmax to Km for human OATP2B1 H618Q/H579Q double mutant low affinity site expressed in Xenopus laevis oocytes assessed as transporter-mediated drug uptake per 15 mins per oocyte after 15 mins by Eadie-Hofstee plot method; assay type: ADME, cell-based; details: 0.25 h
[9] = target: T2, Solute carrier organic anion transporter family member 2B1; assay: Substrate activity at human OATP2B1 H618Q mutant high affinity site expressed in Xenopus laevis oocytes assessed as Vmax for transporter-mediated drug accumulation per 15 mins per oocyte by Eadie-Hofstee plot method; assay type: ADME, cell-based; details: 0.25 h
[10] = target: T3, Solute carrier organic anion transporter family member 2B1 (Homo sapiens, UniProt O94956, H579Q); assay: Drug uptake assessed as human OATP2B1 H579Q mutant expressed in Xenopus laevis oocyte mediated drug accumulation at 0.005 to 50 uM after 15 mins by LC-MS/MS analysis relative to wild type protein; assay type: ADME; details: 0.25 h
T3 sequence (O94956 whole entry T392I/H579Q): as the sequence (O94956 whole entry T392I/H618Q) above, with H579Q, Q618H counted along it

[11] = Substrate activity at human OATP2B1 H618Q/H579Q double mutant low affinity site expressed in Xenopus laevis oocytes assessed as Vmax for transporter-mediated drug accumulation per 15 mins per oocyte by Eadie-Hofstee plot method; assay type: ADME, cell-based; details: 0.25 h
[12] = target: T1, Solute carrier organic anion transporter family member 2B1; assay: Ratio of Vmax to Km for human OATP2B1 low affinity site expressed in Xenopus laevis oocytes assessed as transporter-mediated drug uptake per 15 mins per oocyte after 15 mins by Eadie-Hofstee plot method; assay type: ADME, cell-based; details: 0.25 h
[13] = target: T3, Solute carrier organic anion transporter family member 2B1; assay: Drug uptake assessed as human OATP2B1 H579Q mutant expressed in Xenopus laevis oocyte mediated drug accumulation at 50 uM after 15 mins by LC-MS/MS analysis relative to wild type protein; assay type: ADME; details: 0.25 h
[14] = target: Solute carrier organic anion transporter family member 2B1 (Homo sapiens, UniProt O94956, H219Q); assay: Drug uptake assessed as human OATP2B1 H219Q mutant expressed in Xenopus laevis oocyte mediated drug accumulation at 0.005 to 50 uM after 15 mins by LC-MS/MS analysis relative to wild type protein; assay type: ADME; details: 0.25 h
Chain of Solute carrier organic anion transporter family member 2B1 (Homo sapiens, UniProt O94956, H219Q) (O94956 whole entry H219Q/T392I): as the sequence (O94956 whole entry T392I/H618Q) above, with H219Q, Q618H counted along it

[15] = target: T2, Solute carrier organic anion transporter family member 2B1; assay: Substrate activity at human OATP2B1 H618Q mutant low affinity site expressed in Xenopus laevis oocytes assessed as Vmax for transporter-mediated drug accumulation per 15 mins per oocyte by Eadie-Hofstee plot method; assay type: ADME, cell-based; details: 0.25 h
[16] = Substrate activity at human OATP2B1 H579Q/H618Q double mutant high affinity site expressed in Xenopus laevis oocytes assessed as Vmax for transporter-mediated drug accumulation per 15 mins per oocyte by Eadie-Hofstee plot method; assay type: ADME, cell-based; details: 0.25 h
[17] = target: T1, Solute carrier organic anion transporter family member 2B1; assay: Drug uptake assessed as OATP2B1 high affinity site (unknown origin)-mediated drug uptake in presence of 1 mM pravastatin relative to control; assay type: ADME
[18] = system: OATP2B1 H618Q/H579Q double mutant, low affinity site; assay: Substrate activity at human OATP2B1 H618Q/H579Q double mutant low affinity site expressed in Xenopus laevis oocytes assessed as Km for transporter-mediated drug accumulation after 15 mins by Eadie-Hofstee plot method; assay type: ADME, cell-based
[19] = target: T1, Solute carrier organic anion transporter family member 2B1; assay: Drug uptake assessed as human OATP2B1 expressed in Xenopus laevis oocyte mediated drug accumulation per oocyte at 0.005 uM after 15 mins by LC-MS/MS analysis; assay type: ADME; details: 0.25 h
[20] = target: T1, Solute carrier organic anion transporter family member 2B1; assay: Drug uptake assessed as human OATP2B1 expressed in Xenopus laevis oocyte mediated drug accumulation per oocyte at 50 uM after 15 mins by LC-MS/MS analysis; assay type: ADME; details: 0.25 h
[21] = target: T1, Solute carrier organic anion transporter family member 2B1; assay: Drug uptake assessed as OATP2B1 low affinity site (unknown origin)-mediated drug uptake in presence of 1 mM pravastatin relative to control; assay type: ADME
[22] = target: T2, Solute carrier organic anion transporter family member 2B1; assay: Ratio of Vmax to Km for human OATP2B1 H618Q mutant low affinity site expressed in Xenopus laevis oocytes assessed as transporter-mediated drug uptake per 15 mins per oocyte after 15 mins by Eadie-Hofstee plot method; assay type: ADME, cell-based; details: 0.25 h
[23] = target: T2, Solute carrier organic anion transporter family member 2B1; assay: Drug uptake assessed as human OATP2B1 H618Q mutant expressed in Xenopus laevis oocyte mediated drug accumulation at 0.005 uM after 15 mins by LC-MS/MS analysis relative to wild type protein; assay type: ADME; details: 0.25 h
[24] = target: T1, Solute carrier organic anion transporter family member 2B1; assay: Drug uptake assessed as OATP2B1 low affinity site (unknown origin)-mediated drug uptake in presence of 1 mM sulfasalazine relative to control; assay type: ADME
[25] = target: T1, Solute carrier organic anion transporter family member 2B1; assay: Ratio of Vmax to Km for human OATP2B1 high affinity site expressed in Xenopus laevis oocytes assessed as transporter-mediated drug uptake per 15 mins per oocyte after 15 mins by Eadie-Hofstee plot method; assay type: ADME, cell-based; details: 0.25 h
[26] = Ratio of Vmax to Km for human OATP2B1 H579Q/H618Q double mutant high affinity site expressed in Xenopus laevis oocytes assessed as transporter-mediated drug uptake per 15 mins per oocyte after 15 mins by Eadie-Hofstee plot method; assay type: ADME, cell-based; details: 0.25 h

For `C[C@]12CC[C@@H]3c4ccc(OS(=O)(=O)O)cc4CC[C@H]3[C@@H]1CCC2=O` [ESTRONE SULFURIC ACID], the Vmax [1] was 19.8 pmol, the “fold change (FC)” value [2] was under 2 and the “fold change (FC)” value [3] was under 2. It also gave a Drug uptake [4] of under 1%, a Vmax [5] of 0.867 pmol and a Km at 0.25 h [6] of 808 nM. The Vmax/Km [7] was 0.269 µL, the Vmax/Km [8] was 0.0987 µL and the Vmax [9] was 0.0402 pmol. For the same compound, the “fold change (FC)” value [10] was under 2, the Vmax [11] was 30.9 pmol and the Vmax/Km [12] was 0.385 µL. The Drug uptake [13] was 14%, the “fold change (FC)” value [14] was under 2 and the Vmax [15] was 60 pmol. For the same compound, the Vmax [16] was 0.38 pmol, the Drug uptake [17] was 21% and the Km at 0.25 h [18] was 312 µM. It also gave a Drug uptake [19] of 2.39 µL, a Drug uptake [20] of 0.198 µL and a Drug uptake [21] of 79%. The Vmax/Km [22] was 0.659 µL, the Drug uptake [23] was 17.8% and the Drug uptake [24] was under 1%. The Vmax/Km [25] was 1.87 µL and the Vmax/Km [26] was 0.471 µL.
